According to PubChem BioAssay AID1259420 (Broad Institute, 2018):
Values joined by “and” are separate entries in the source; they are usually repeats but may differ in a detail not shown here. Equal entries are not always repeated. Inconclusive results are not listed. Active and inactive are the calls of the source. The rule behind the calls is not given here.

Each compound was assayed on Toxoplasma gondii growth in host cells, no IFN-gamma (assay: T. gondii intracellular growth, IFN-gamma absent, dose response, cell-based (AID 1259420);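 note: host cells were HeLa; final incubation lasted 72 hours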).
Compound CCc1cnc(N2[C@H](C#N)[C@@H](c3ccc(C#Cc4ccccc4F)cc3)[C@@H]2CO)s1 has an AC50 of 16.3 µM. With Cc1ccc(S(=O)(=O)N2CC[C@@H]3[C@H]2c2cc(-c4cccc(C(=O)N(C)C)c4)ccc2N[C@@H]3CO)cc1 the AC50 was 30.1 µM. COc1ccc(S(=O)(=O)N2CCCCN3[C@H](CO)[C@@H](c4ccc(C#CCC(C)C)cc4)[C@H]3C2)cc1 was tested, and the AC50 was 12.8 µM and 7.95 µM. With CC(C)(O)CC(=O)NCCn1ccc2ncnc(Nc3ccc(Oc4cccc(C(F)(F)F)c4)c(Cl)c3)c21 the AC50 was > 39 µM (inactive). In the case of CCCNC(=O)N1[C@H](CO)[C@@H](c2ccc(-c3ccccc3F)cc2)[C@@H]1C#N, the AC50 is reported as > 39 µM (inactive). For CCOCCCNC(=O)c1ccc2ccc(N3CCN(CC4CC4)CC3)n2c1, the AC50 was > 39 µM (inactive). With C/C=C/c1ccc(C2[C@H]3CNC[C@@H]2N3Cc2cc(F)ccc2F)cc1 (some centres not stated) the AC50 was 11.4 µM. For O=C(C[C@@H]1CC[C@@H]2[C@H](COC[C@H](O)CN2Cc2ccc3c(c2)OCO3)O1)N1CCCCC1, the AC50 was > 39 µM (inactive). For COCCN1C(=O)CCC12CCC(NC(=O)c1cc(C)on1)CC2 (configuration not stated), the AC50 was > 39 µM (inactive). In the case of CSCc1noc(CN2CCCC3(C2)CN(C)C(=O)O3)n1 (configuration not stated), the AC50 is reported as > 39 µM (inactive). Work on O=C(CCCCCCNC(=O)c1cnc(N(c2ccccc2)c2ccccc2)nc1)NO yielded an AC50 of 14.8 µM. COc1ccc(-c2ccc3c(c2)[C@@H]2[C@@H](CCN2C(=O)c2cccc(F)c2)[C@H](CO)N3)cc1 showed an AC50 of 11.3 µM. With CN(C)C(=O)COCC1CN(S(C)(=O)=O)Cc2nnn(C)c21 (configuration not stated) the AC50 was > 39 µM (inactive). Work on N#Cc1ccc(-c2ccc([C@@H]3[C@@H]4CN(S(=O)(=O)Cc5ccccc5)C[C@H]3N4)cc2)cc1 yielded an AC50 of 9.96 µM. O=C(CC1CCC2(CC1)CCN(c1ncc(F)cn1)CC2)N1CC=CC1 was tested, and the AC50 was 21.7 µM. With O=S(=O)(c1ccccc1F)N1CCC(c2nc3ccc(-c4ccncc4)cn3n2)CC1 the AC50 was > 39 µM (inactive). Work on N#Cc1cccc(-c2ccc3c(c2)[C@H]2[C@H](CCN2C(=O)c2ccccc2F)[C@@H](CO)N3)c1 yielded an AC50 of 15.1 µM. For O=C(NC1CCCC1)[C@H]1[C@H](CO)[C@H]2Cn3c(ccc(C4=CCCCC4)c3=O)[C@@H]1N2CC1CC1, the AC50 was > 39 µM (inactive). With O=C(Nc1cccc(F)c1)N1CCCCN2[C@H](CO)[C@H](c3ccc(C#Cc4cccnc4)cc3)[C@@H]2C1 the AC50 was 1.34 µM and 2.47 µM. For N#C[C@@H]1[C@@H](c2ccc(C3=CCCCC3)cc2)[C@@H](CO)N1S(=O)(=O)c1ccccc1, the AC50 was > 39 µM (inactive). For O=C(Cc1ccc(Cl)cc1)N1CC2(CCN(Cc3ccc(C(F)(F)F)cc3)CC2)C1, the AC50 was > 39 µM (inactive). Cc1nc2ccccn2c1CN(C)Cc1cnn(-c2ccccc2)c1 was tested, and the AC50 was 12.2 µM. In the case of CCc1cnc(N2[C@@H](C#N)[C@@H](c3ccc(C4=CCCCC4)cc3)[C@@H]2CO)s1, the AC50 is reported as > 20 µM (inactive). For COCCN1CCc2c(cnc(-c3cccnc3)c2C(=O)O)C1, the AC50 was > 39 µM (inactive). Cn1cnc(S(=O)(=O)N2CCCCN3[C@H](CO)[C@H](c4ccc(C5=CCCCC5)cc4)[C@@H]3C2)c1 was tested, and the AC50 was 23.4 µM and 22.7 µM. Compound CCCCCCCCCCCCCCCC[n+]1ccccc1 has an AC50 of 6.86 µM. In the case of Cc1sc2ncnc(Oc3ccc(OCc4ccccc4)cc3)c2c1C, the AC50 is reported as 7.16 µM and 9.76 µM. For O=C(Nc1ccc2c(c1)OCO2)N1C[C@@H]2N[C@H](C1)C2c1ccc(C=Cc2ccccc2)cc1 (some centres not stated), the AC50 was 11.6 µM and 8.75 µM. With Cc1cc(C(=O)Nc2ccc3c(c2)C(=O)N(C)[C@H]2CC[C@H](CC(=O)NCc4ccc(-c5ccccc5)cc4)O[C@H]2CO3)no1 the AC50 was 14 µM. With Cc1ccc(N2CCC3(CC2)CN(CC#N)Cc2ccccc23)nn1 the AC50 was > 39 µM (inactive). N#C[C@@H]1[C@@H](c2ccc(C#Cc3cccnc3)cc2)[C@@H](CO)N1C(=O)NC1CCCCC1 was tested, and the AC50 was > 39 µM (inactive). In the case of COCCn1cc2c(n1)C(CNC(=O)CS(C)(=O)=O)OCC2 (configuration not stated), the AC50 is reported as > 39 µM (inactive). With COc1ccccc1-c1ccc(C2[C@@H]3CN(S(=O)(=O)c4ccc(C)cc4)C[C@H]2N3)cc1 (some centres not stated) the AC50 was 15.2 µM and > 20 µM (inactive). With Cc1ccn(CCNc2nccc(-c3c(C)nn(C)c3C)n2)n1 the AC50 was > 39 µM (inactive). With Cc1ccc(S(=O)(=O)N2CC[C@H]3[C@@H](CO)N(C)c4ccc(-c5ccccc5F)cc4[C@H]32)cc1 the AC50 was > 20 µM (inactive). With Cc1cccc(-c2ccc(C3[C@@H]4CN(Cc5cccc(F)c5)C[C@H]3N4)cc2)c1 (some centres not stated) the AC50 was 19.4 µM. With CCCCOc1ccc2c(=O)c(-c3cc(C(=O)OC)oc3C)c(C(F)(F)F)oc2c1C the AC50 was 8.86 µM and 8.94 µM. COC(=O)[C@@H]1C[C@@H](N(C)C)CN1S(=O)(=O)c1c(C)ccc2nsnc12 was tested, and the AC50 was > 39 µM (inactive). O=S(=O)(c1ccccc1F)N1CC[C@H]2[C@H](CO)Nc3ccc(C4=CCCCC4)cc3[C@H]21 was tested, and the AC50 was 12.4 µM. Work on c1ccc2c(Oc3nc(Nc4ccc(N5CCOCC5)cc4)c4ncn(C5CCCCC5)c4n3)cccc2c1 yielded an AC50 of 12.7 µM. O=C(c1ccc(F)cc1)N1CC(=O)N2[C@@H](CO)[C@@H](c3ccc(C#CCC4CCCC4)cc3)[C@@H]2C1 gave an AC50 of 21.2 µM. For CC(C)NC(=O)N1CCC2(CC1)OCCN(CCO)c1ccccc12, the AC50 was > 39 µM (inactive). For Cc1ccccc1S(=O)(=O)N1CCCCN2[C@H](CO)[C@H](c3ccc(C#CCN(C)C)cc3)[C@H]2C1, the AC50 was 33.7 µM. For COc1cccc(CN2CCCCN3[C@@H](CO)[C@@H](c4ccc(-c5ccccc5OC)cc4)[C@@H]3C2)c1, the AC50 was 15.7 µM. Compound O=S(=O)(c1cccs1)N1CCCCN2[C@H](CO)[C@H](c3ccc(/C=C/c4ccccc4)cc3)[C@@H]2C1 has an AC50 of 29 µM. For O=C(Nc1ccc(F)cc1)N1CC(=O)N2[C@H](C1)[C@H](c1ccc(-c3cccc(F)c3)cc1)[C@@H]2CO, the AC50 was 15 µM. With CC(C)NC(=O)N1CC(=O)N2[C@H](C1)[C@@H](c1ccc(/C=C/c3ccccc3)cc1)[C@@H]2CO the AC50 was 17.9 µM. Work on O=C(CC1CC1)N1CC[C@@H]2[C@H]1c1cc(-c3ccc(F)cc3)ccc1N[C@@H]2CO yielded an AC50 of 16.3 µM. CC(C)CC#Cc1ccc([C@@H]2[C@@H](CO)N3C(=O)CN(C(=O)Nc4cc(F)ccc4F)C[C@@H]23)cc1 gave an AC50 of 17.1 µM. Cc1cccc(NC2COC3(CCN(C(=O)c4ccsc4)C3)C2)c1 (configuration not stated) was tested, and the AC50 was 28.1 µM. In the case of CN1[C@@H]2c3ccc(/C=C/c4ccccc4)c(=O)n3C[C@H]1[C@H](CO)[C@H]2C(=O)NC1Cc2ccccc2C1, the AC50 is reported as > 39 µM (inactive). For C=CCNc1nnc(Cl)c2ccccc12, the AC50 was 17.8 µM. In the case of Cc1ccc(C)c(S(=O)(=O)N2CCC3(CC2)c2ncc(-c4cccc(F)c4)n2CCN3C)c1, the AC50 is reported as > 20 µM (inactive). Work on COc1cccc(-c2nc3c(s2)CN(S(=O)(=O)c2ccccc2C)CC3)c1 yielded an AC50 of 34.7 µM. COCCC(=O)C1Cc2nc(-c3ccccc3)sc2N1CC1CC1 (configuration not stated) gave an AC50 of 25.2 µM. For CN1C(=O)CC2C1CCN2S(=O)(=O)Cc1ccccc1 (configuration not stated), the AC50 was > 39 µM (inactive). Compound CCCc1ccc(S(=O)(=O)N2CCC[C@@H]2C(=O)NCCc2csc(-c3ccccc3)n2)cc1 has an AC50 of 18.7 µM. Compound N#Cc1cccc(-c2ccc3c(c2)[C@H]2[C@H](CCN2Cc2ccc4c(c2)OCO4)[C@H](CO)N3)c1 has an AC50 of 17.2 µM. C[C@H](CO)N1C[C@H](C)[C@H](CN(C)C(=O)c2cc(Cl)cc(Cl)c2)OCc2ccccc2-c2c(n(C)c3ccccc23)C1=O showed an AC50 of 15.3 µM. CN1c2ccc(C#Cc3cccnc3)cc2[C@@H]2[C@@H](CCN2C(=O)c2cccc(F)c2)[C@@H]1CO was tested, and the AC50 was 30.3 µM. In the case of CN(C[C@H]1N[C@@H](CO)[C@@H]1c1ccc(C2=CCCC2)cc1)C(=O)c1cccc(F)c1, the AC50 is reported as 3.41 µM and 4.45 µM. With COc1ccc(CN2CCO[C@H]3[C@H]2CC[C@H]3OCCCn2cccn2)cc1 the AC50 was > 39 µM (inactive). With CN1c2ccc(C3=CCCCC3)cc2[C@@H]2[C@@H](CCN2C(=O)c2ccc3c(c2)OCO3)[C@@H]1CO the AC50 was 27.5 µM. In the case of CN1C(=O)c2cc(NC(=O)c3cccc(F)c3)ccc2OC[C@@H]2O[C@H](CC(=O)NCC3CCCCC3)CC[C@@H]21, the AC50 is reported as > 39 µM (inactive). CC(C)C#Cc1ccc([C@@H]2[C@@H](CO)N(C(=O)c3cccc(F)c3)[C@H]2C#N)cc1 was tested, and the AC50 was > 20 µM (inactive). C[C@H]1CN([C@@H](C)CO)C(=O)c2cccc(NS(=O)(=O)c3ccc(F)cc3)c2O[C@H]1CN(C)Cc1ccc(Cl)c(Cl)c1 was tested, and the AC50 was 17.6 µM. With CN(C[C@H]1[C@H](c2ccccc2)[C@@H](CO)N1CC1CC1)C(=O)c1ccc(F)cc1 the AC50 was > 39 µM (inactive). CC(C)C#Cc1ccc([C@H]2[C@@H](C#N)N(C(=O)c3cccc(F)c3)[C@H]2CO)cc1 showed an AC50 of 26.4 µM. O=C(NCCN1CCCC1)[C@H]1[C@H](CO)[C@H]2Cn3c(cccc3=O)[C@H]2N1Cc1ccccn1 was tested, and the AC50 was > 39 µM (inactive). In the case of N#Cc1ccc(-c2ccc([C@H]3[C@@H](CO)N4C(=O)CNC[C@@H]34)cc2)cc1, the AC50 is reported as > 39 µM (inactive). Compound CC(C)C#Cc1ccc([C@H]2[C@@H](C#N)N(C(=O)c3cccc(F)c3)[C@@H]2CO)cc1 has an AC50 of 14.1 µM. C=C(C)[C@@H]1CC[C@]2(C(=O)O)CC[C@]3(C)[C@H](CC[C@@H]4[C@@]5(C)CC[C@H](O)C(C)(C)[C@@H]5CC[C@]43C)[C@@H]12 showed an AC50 of 26.9 µM. Compound O=C1c2c(O)ccc(O)c2C(=O)c2c(NCCNCCO)ccc(NCCNCCO)c21 has an AC50 of 0.209 µM. For O=C(Cc1ccccc1)N1CC(=O)N2[C@H](C1)[C@@H](c1ccc(-c3ccc(F)cc3)cc1)[C@@H]2CO, the AC50 was 24.7 µM. Work on CCn1c(C2CCCN(C(=O)CCN3CCCCCC3=O)C2)nn(C)c1=O (configuration not stated) yielded an AC50 of 29.4 µM. Work on CCCCCCCCCCCCCCCC[N+](C)(C)C yielded an AC50 of 15.3 µM. In the case of O=C(NCc1cccnc1)C1CC2CN(Cc3cccc(Cl)c3)CC1O2 (configuration not stated), the AC50 is reported as 4.73 µM. Compound CCc1ccc(S(=O)(=O)N2CCC3(CCCN(Cc4c(C)noc4C)C3)C2)cc1 (configuration not stated) has an AC50 of 35.4 µM. For COc1cccc(S(=O)(=O)N2CCCCN3[C@@H](CO)[C@@H](c4ccc(C#CCC(C)C)cc4)[C@@H]3C2)c1, the AC50 was 12.1 µM and 10.1 µM. Work on CN1c2ccc(-c3ccccc3)cc2[C@@H]2[C@@H](CCN2C(=O)CC2CC2)[C@@H]1CO yielded an AC50 of 25.3 µM. Compound COCCNC(=O)C[C@@H]1C[C@@H]2CN(Cc3ccncc3)C[C@H]2O1 has an AC50 of 29 µM. With O=C(Nc1ccc(F)cc1)N1C[C@@H]2N[C@H](C1)C2c1ccc(/C=C/c2ccccc2)cc1 (some centres not stated) the AC50 was 9.87 µM. With CCOC(=O)c1nn(Cc2ccccc2)c2c1CN(C(=O)CN1CC(c3ccccc3)CC1=O)CC2 (configuration not stated) the AC50 was 28.6 µM. With COc1ccccc1C1CN(Cc2cccc(O)c2)Cc2ccccc2O1 (configuration not stated) the AC50 was 22.8 µM. In the case of CCc1ccccc1S(=O)(=O)N1CCc2nc(-c3ccccc3)sc2C1, the AC50 is reported as 3.94 µM and 3.08 µM. With COc1cccc(NC(=O)N2CC(=O)N3[C@H](CO)[C@H](c4ccc(C#CCC5CCCC5)cc4)[C@@H]3C2)c1 the AC50 was 15.9 µM. With O=C(CCCCCNc1nc(=S)[nH]c2ccccc12)N1CCC(O)(c2cccc(C(F)(F)F)c2)CC1 the AC50 was > 39 µM (inactive).
